Assay results as given in US11319318B2, “Pyridinones and isoquinolinones as inhibitors of the bromodomain BRD9” (Boehringer Ingelheim International GmbH, priority 2015, dated 2022).

The compounds below were run against T1, bromodomain of BRD9 (GST-BRD9 aa 130-259) / H3 K9/14/18/23Ac(1-28) peptide (Homo sapiens, UniProt Q9H8M2) (assay: BRD9-H3 tetra-acetylated Peptide Inhibition AlphaScreen).
T1 construct: The protein corresponding to amino acids 130-259 that contains the bromodomain of BRD9; made in house; host or cells: E. coli
T1 sequence (Q9H8M2 130-259): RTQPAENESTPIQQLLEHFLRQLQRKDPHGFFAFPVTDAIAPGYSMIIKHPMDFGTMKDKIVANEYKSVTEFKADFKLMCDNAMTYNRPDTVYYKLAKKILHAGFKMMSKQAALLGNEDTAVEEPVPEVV
Format: binding
From the text: Biological Methods BRD9-H3 tetra-acetylated Peptide Inhibition AlphaScreen
This assay is used to identify compounds which inhibit the interaction of the bromodomain of BRD9 with a tetra-acetylated peptide based on the sequence of histone H3 (H3 K9/14/18/23Ac (1-28)).
AlphaScreen Beads (Perkin Elmer):
AlphaLISA Glutathione Acceptor Beads
AlphaScreen Streptavidin Donor Beads
The assay is done in a darkened room below 100 Lux.
Compounds are dispensed onto assay plates using an Access Labcyte Workstation with the Labcyte Echo 550 from a DMSO solution. For the chosen highest concentration of 100 μM, 150 nl of compound solution are transferred from a 10 mM DMSO solution. […] DMSO is added such that every well has a total of 150 nl of DMSO.
After 60 min at room temperature the signal is measured in a PerkinElmer Envision HTS Multilabel Reader using the AlphaScreen specifications from PerkinElmer.
Each plate contains negative controls where biotinylated H3 K9/14/18/23Ac(1-28) peptide and GST-BRD9 are left out and replaced by assay buffer. Negative control values are entered as low basis value when using the software GraphPad Prism for calculations.
Cc1cc(-c2ccc(CN3CC4CCC3C4)cc2)cn(C)c1=O (stereo not shown) [Compound I-184] gave an IC50 of 1320 nM.
Compound C[C@H](N)c1ccc(-c2cn(C)c(=O)c3ccccc23)cc1 [II-46] has an IC50 of 1010 nM.
With CNCCN(C)S(=O)(=O)c1cc(OC)c(-c2cc(C)c(=O)n(C)c2C)cc1OC [Compound I-155] the IC50 was 128 nM.
With CNC1CN(Cc2c(OC)cc(-c3cc(C)c(=O)n(C)c3)cc2OC)C1 [Compound I-146] the IC50 was 33 nM.
COc1cc(-c2cn(C)c(=O)c3cncnc23)c(OC)cc1CN(C)C [II-12] was tested, and the IC50 was 344 nM.
Work on CN1CCN(Cc2ccc(-c3cn(C)c(=O)c4ccccc34)cc2)CC1 [II-43] yielded an IC50 of 890 nM.
With CN1CCN(C(=O)c2ccc(-c3nn(C)c(=O)c4ccccc34)cc2)CC1 [II-17] the IC50 was 16300 nM.
For COc1cc(-c2cn(C)c(=O)c3ccc(Cn4cccn4)cc23)cc(OC)c1CN(C)C [II-19], the IC50 was 31 nM.
COCc1c(OC)cc(-c2cc(C)c(=O)n(C)c2)cc1OC [Compound I-59] was tested, and the IC50 was 142 nM.
COc1cc(-c2cc(C)c(=O)n(C)c2)cc(OC)c1CN(C)C1CN(C)C1 [Compound I-208, 5-(3,5-Dimethoxy-4-{[methyl-(1-methyl-azetidin-3-yl)-amino]-methyl}-phenyl)-1,3-dimethyl-1H-pyridin-2-one] was tested, and the IC50 was 114 nM.
Cc1cc(-c2cc(C)c(=O)n(C)c2)ccc1S(=O)(=O)N1CCN(C)CC1 [Compound I-83] was tested, and the IC50 was 521 nM.
Work on Cc1cc(-c2cccc(C3CCCCN3)c2)cn(C)c1=O (stereo not shown) [Compound I-98] yielded an IC50 of 2360 nM.
In the case of COc1cc(-c2cc(C)c(=O)n(C)c2)ccc1CN1CC(OC)C1 [Compound I-50], the IC50 is reported as 74 nM.
Work on Cc1cc(-c2ccc(S(=O)(=O)C(C)C)cc2)cn(C)c1=O [Compound I-13] yielded an IC50 of 1590 nM.
With Cc1cc(-c2ccc([C@H](C)N3CCCCC3)cc2)cn(C)c1=O [Compound I-3] the IC50 was 157 nM.
COc1cc(-c2cc(C)c(=O)n(C)c2C)cc(OC)c1CN1CC(O)C1 [Compound I-118] gave an IC50 of 10 nM.
For Cc1cc(-c2cccc(NS(C)(=O)=O)c2)cn(C)c1=O [Compound I-31, N-[3-(1,5-Dimethyl-6-oxo-1,6-dihydro-pyridin-3-yl)-phenyl]-methanesulfonamide], the IC50 was 1220 nM.
COc1cc(-c2cn(C)c(=O)c(C)c2C)cc(OC)c1CN1CC(O)C1 [Compound I-103] showed an IC50 of 37 nM.
Work on Cc1cc(-c2ccc(C(C)N(C)C)cc2)cn(C)c1=O (stereo not shown) [Compound I-11] yielded an IC50 of 1430 nM.
Work on COc1cc(-c2cc(C)c(=O)n(C)c2C)cc(OC)c1CN1CCNCC1 [Compound I-124] yielded an IC50 of 144 nM.
Compound Cc1cc(-c2ccc([C@H](C)N)cc2)c(C)n(C)c1=O [Compound I-142] has an IC50 of 1960 nM.
COc1cc(-c2cc(C)c(=O)n(C)c2C)ccc1CN1C[C@@H]2CC1CN2C [Compound I-133] showed an IC50 of 387 nM.
In the case of Cc1cc(-c2cn(C)c(=O)c3ccccc23)ccc1C(N)=O [II-49], the IC50 is reported as 3140 nM.
In the case of COc1cc(-c2cc(C)c(=O)n(C)c2)ccc1CN1C[C@H]2C[C@@H]1CN2C [Compound I-72], the IC50 is reported as 335 nM.
COc1cc(-c2cc(C)c(=O)n(C)c2)ccc1C1(N2CCN(C)CC2)CC1 [Compound I-67] showed an IC50 of 215 nM.
With COCc1c(OC)cc(-c2cn(C)c(=O)c(C)c2C)cc1OC [Compound I-107] the IC50 was 137 nM.
Cc1cc(-c2ccc(CN3CC(O)C3)cc2)cn(C)c1=O [Compound I-179, 5-[4-(3-Hydroxy-azetidin-1-ylmethyl)-phenyl]-1,3-dimethyl-1H-pyridin-2-one] showed an IC50 of 187 nM.
In the case of COc1cc(-c2cn(C)c(=O)c(C)c2C)ccc1CN1C[C@@H]2CC1CN2 [Compound I-109], the IC50 is reported as 193 nM.
For CCc1cc(-c2cc(C)c(=O)n(C)c2)cc(OC)c1C(=O)N1CCNCC1 [Compound I-157, 5-[3-Ethyl-5-methoxy-4-(piperazine-1-carbonyl)-phenyl]-1,3-dimethyl-1H-pyridin-2-one], the IC50 was 89 nM.
For Cc1cc(-c2ccc3c(c2)CNC3)c(C)n(C)c1=O [Compound I-126], the IC50 was 167 nM.
Compound CN1CCN(C(=O)c2ccc(-c3cn(C)c(=O)c4ncccc34)cc2)CC1 [II-50] has an IC50 of 4850 nM.
In the case of COc1cc(-c2cn(C)c(=O)c3cccnc23)c(OC)cc1CN(C)C [II-26], the IC50 is reported as 630 nM.
Compound COc1cc(-c2cc(C)c(=O)n(C)c2)ccc1CN1C[C@@H]2CC1CN2C [Compound I-51] has an IC50 of 78 nM.
Cc1cc(-c2ccc(CN3CCCC3)cc2)cn(C)c1=O [Compound I-180] showed an IC50 of 870 nM.
Cc1cc(-c2cn(C)c(=O)c3ccccc23)ccc1C(=O)N1CCN(C)CC1 [II-45] gave an IC50 of 981 nM.
Work on COc1cc(-c2cc(C)c(=O)n(C)c2)ccc1COC1CNC1 [Compound I-144] yielded an IC50 of 26 nM.
COc1cc(S(=O)(=O)N(C)CCN(C)C)c(OC)cc1-c1cc(C)c(=O)n(C)c1C [Compound I-125] showed an IC50 of 166 nM.
COc1cc(-c2cc(C)c(=O)n(C)c2)ccc1C1(N(C)C)CC1 [Compound I-53] showed an IC50 of 97 nM.
In the case of Cc1cc(-c2ccc(N3CCOCC3)cc2)c(C)n(C)c1=O [Compound I-215], the IC50 is reported as 9200 nM.
For Cc1cc(-c2ccc(C(C)N3CCCCC3)cc2)cn(C)c1=O (stereo not shown) [Compound I-6], the IC50 was 318 nM.
With COc1cc(-c2cc(C)c(=O)n(C)c2)cc(OC)c1CNC1CNC1 [Compound I-145] the IC50 was 32 nM.
Cc1cc(-c2ccc([C@H](C)N3CCCC3)cc2)cn(C)c1=O [Compound I-2, 1,3-dimethyl-5-[4-((S)-1-pyrrolidin-1-yl-ethyl)-phenyl]-1H-pyridin-2-one] gave an IC50 of 145 nM.
Compound Cc1cc(-c2ccc(CN3CCCCC3)cc2)cn(C)c1=O [Compound I-182] has an IC50 of 1050 nM.
With COc1cc(-c2cc(C)c(=O)n(C)c2)ccc1CN1CCN(Cc2cccc(N)c2)CC1 [Compound I-198, 5-{4-[4-(3-Amino-benzyl)-piperazin-1-ylmethyl]-3-methoxy-phenyl}-1,3-dimethyl-1H-pyridin-2-one] the IC50 was 71 nM.
COCc1c(OC)cc(-c2cc(C)c(=O)n(C)c2C)cc1OC [Compound I-130] showed an IC50 of 302 nM.
Cn1cc(-c2ccc(C(=O)N3CCNCC3)cc2)c2ccccc2c1=O [II-42, 2-Methyl-4-[4-(piperazine-1-carbonyl)-phenyl]-2H-isoquinolin-1-one] gave an IC50 of 439 nM.
COc1cc(S(=O)(=O)NC2CNC2)c(OC)cc1-c1cn(C)c(=O)c(C)c1C [Compound I-151] showed an IC50 of 26 nM.
COc1cc(-c2cc(C)c(=O)n(C)c2C)ccc1C1(N(C)C)CC1 [Compound I-122] was tested, and the IC50 was 116 nM.
For Cc1c(-c2ccc([C@@H](C)N)cc2)cn(C)c(=O)c1C [Compound I-139], the IC50 was 1380 nM.
Cn1cc(-c2ccc(C(=O)N3CCNCC3)cc2)c2cc[nH]c2c1=O [III-6] showed an IC50 of 81 nM.
In the case of CN1CCN(C(=O)c2ccc(-c3cn(C)c(=O)c4cnccc34)cc2)CC1 [II-8], the IC50 is reported as 953 nM.
Work on CNCc1ccc(-c2cc(C)c(=O)n(C)c2)cc1 [Compound I-181] yielded an IC50 of 1000 nM.
With COc1cc(-c2cn(C)c(=O)c3ncccc23)c(OC)cc1CN(C)C [II-22] the IC50 was 2140 nM.
Cc1cc(-c2cc(C)c(=O)n(C)c2)ccc1CN [Compound I-92] was tested, and the IC50 was 1040 nM.
Cc1cc(-c2cc(C)c(=O)n(C)c2C)ccc1C(=O)N1CCN(C)CC1 [Compound I-136] gave an IC50 of 1920 nM.
Cc1c(-c2ccc3c(c2)CCNC3)cn(C)c(=O)c1C [Compound I-116] showed an IC50 of 744 nM.
With Cc1cc(-c2ccc(S(=O)(=O)N(C)C)cc2)cn(C)c1=O [Compound I-8] the IC50 was 976 nM.
For CCC(CC)(c1ccc(-c2cc(C)c(=O)n(C)c2)cc1OC)N1CCN(C)CC1 [Compound I-61], the IC50 was 179 nM.
In the case of COc1cc(-c2cc(C)c(=O)n(C)c2)cc(OC)c1CN1CCN(C)CC1 [Compound I-63], the IC50 is reported as 203 nM.
Compound COc1cc(-c2cc(C)c(=O)n(C)c2)cc(OC)c1CN1CCNCC1 [Compound I-52] has an IC50 of 87 nM.
Cc1cc(-c2cn(C)c(=O)c3[nH]ccc23)ccc1C(=O)N1CCNCC1 [III-5] showed an IC50 of 68 nM.
Work on Cc1cc(-c2ccc3c(c2)CCN(C)C3)cn(C)c1=O [Compound I-210] yielded an IC50 of 302 nM.
In the case of COc1cc(S(=O)(=O)NCCN(C)C)c(OC)cc1-c1cc(C)c(=O)n(C)c1 [Compound I-57], the IC50 is reported as 132 nM.
Work on COc1cc(-c2cc(C)c(=O)n(C)c2)ccc1C(=O)N1C[C@@H]2CC1CN2C [Compound I-77] yielded an IC50 of 418 nM.
COc1cc(-c2cc(C)c(=O)n(C)c2)ccc1S(=O)(=O)N1CCNCC1 [Compound I-148] was tested, and the IC50 was 144 nM.
Compound Cc1cc(-c2ccc(C(=O)N3CCN(C)CC3)c(OC(F)(F)F)c2)cn(C)c1=O [Compound I-177, 1,3-Dimethyl-5-[4-(4-methyl-piperazine-1-carbonyl)-3-trifluoromethoxy-phenyl]-1H-pyridin-2-one] has an IC50 of 1320 nM.
For Cc1cc(-c2ccc(CN3CCN(C)CC3)c(N(C)C)c2)cn(C)c1=O [Compound I-204, 5-[3-Dimethylamino-4-(4-methyl-piperazin-1-ylmethyl)-phenyl]-1,3-dimethyl-1H-pyridin-2-one], the IC50 was 231 nM.
Work on COc1cc(-c2cn(C)c(=O)c3cnccc23)cc(OC)c1CN1CC(N)C1 [II-31] yielded an IC50 of 11 nM.
COc1cc(-c2cc(C)c(=O)n(C)c2)ccc1CN1CCN(Cc2ccc3nc[nH]c3c2)CC1 [Compound I-199] showed an IC50 of 55 nM.
For CNCCN(C)S(=O)(=O)c1cc(OC)c(-c2cn(C)c(=O)c(C)c2C)cc1OC [Compound I-152], the IC50 was 145 nM.
Work on COc1cc(-c2cn(C)c(=O)c3cnccc23)cc(OC)c1CN1CC(O)C1 [II-34] yielded an IC50 of 8 nM.
In the case of Cc1cc(-c2ccc3c(c2)CCN(C)C3)c(C)n(C)c1=O [Compound I-211], the IC50 is reported as 468 nM.
For COc1cc(-c2cc(C)c(=O)n(C)c2)cc(C)c1CN [Compound I-202, 5-(4-Aminomethyl-3-methoxy-5-methyl-phenyl)-1,3-dimethyl-1H-pyridin-2-one], the IC50 was 268 nM.
Compound COc1cc(-c2cc(C)c(=O)n(C)c2)c(OC)cc1CN1CCNCC1 [Compound I-150] has an IC50 of 298 nM.
Compound CNS(=O)(=O)c1ccc(-c2cc(C)c(=O)n(C)c2)cc1 [Compound I-12] has an IC50 of 1550 nM.
Work on Cc1cc(-c2cc(C)c(=O)n(C)c2)ccc1C1(N2CCN(C)CC2)CC1 [Compound I-84] yielded an IC50 of 618 nM.
